Values quoted from earlier work in article PMC10205807, “Cross-species comparison in nonclinical pharmacokinetics of lenvatinib by a simple HPLC with ultraviolet detection” (Scientific Reports, 2023).
Like-named read-outs stand apart in the source and are kept apart here.

Key:
[1] = set-up: method as in PMID 29620050; conditions: male rats, intravenous; cited from earlier work
[2] = set-up: method as in PMID 29620050; conditions: dogs, intravenous; cited from earlier work
[3] = set-up: method as in PMID 30514402; conditions: mice; cited from earlier work
[4] = set-up: method as in PMID 30514402; conditions: dogs; cited from earlier work
[5] = set-up: method as in PMID 30514402; conditions: monkeys; cited from earlier work
[6] = set-up: method as in PMID 28115222; conditions: mice; cited from earlier work
[7] = set-up: method as in PMID 28115222; conditions: rats; cited from earlier work
[8] = set-up: method as in PMID 28115222; conditions: dogs; cited from earlier work

Q: Which CLtot [1] does the source give for `COc1cc2c(Oc3ccc4[nH]c(C)cc4c3F)ccnc2cc1OCC1(N)CC1` [anlotinib] here?
A: Its CLtot is 106 mL/min/kg.

Q: What about the Vdss [1] of the same molecule?
A: Its Vdss is 25.4 L/kg.

Q: What about the CLtot [2] of the same molecule?
A: The CLtot was 6.33 mL/min/kg.

Q: And the Vdss [2]?
A: The Vdss was 6.8 L/kg.

Q: Which CLtot [3] does the source give for `Cc1cn(-c2cc(NC(=O)c3ccc(C)c(Nc4nccc(-c5cccnc5)n4)c3)cc(C(F)(F)F)c2)cn1` [nilotinib] here?
A: Its CLtot is 2.18 mL/min/kg.

Q: What about the Oral bioavailability [3] of the same molecule?
A: Its Oral bioavailability is 50%.

Q: And the Vdss [3]?
A: Its Vdss is 0.29 L/kg.

Q: And the CLtot [4]?
A: The CLtot was 3.17 mL/min/kg.

Q: And the Oral bioavailability [4]?
A: Its Oral bioavailability is 24%.

Q: What about the Vdss [4] of the same molecule?
A: The Vdss was 1.157 L/kg.

Q: What about the CLtot [5] of the same molecule?
A: Its CLtot is 10.6 mL/min/kg.

Q: And the Oral bioavailability [5]?
A: The Oral bioavailability was 16%.

Q: And the Vdss [5]?
A: Its Vdss is 5.737 L/kg.

Q: For `CCOc1cc2ncc(C#N)c(Nc3ccc(OCc4ccccn4)c(Cl)c3)c2cc1NC(=O)/C=C/[C@H]1CCCN1C` [pyrotinib], which CLtot [6] is on record?
A: The CLtot was 37.2 mL/min/kg.

Q: What about the F [6] of the same molecule?
A: Its F is 20.6%.

Q: And the Vdss [6]?
A: The Vdss was 5.027 L/kg.

Q: What about the CLtot [7] of the same molecule?
A: The CLtot was 3.5 mL/min/kg.

Q: And the F [7]?
A: Its F is 43.5%.

Q: And the Vdss [7]?
A: The Vdss was 1.35 L/kg.

Q: And the CLtot [8]?
A: Its CLtot is 28 mL/min/kg.

Q: And the F [8]?
A: Its F is 20.0%.

Q: What about the Vdss [8] of the same molecule?
A: Its Vdss is 8.157 L/kg.
